Results from ChEMBL document CHEMBL1201862, “PubChem BioAssay data set” (2004).
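Compound exposure: 48 hours, 5 concentrations, 96-well plates. GI50 marks 50% less growth.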 Activity calls are given as the source filed them. Rule as the data show it: active = GI50 up to about 1.1 µM and inactive = higher.

What was measured:
Assay in all cases: NCI-60 cell line screen, 48 h
SF-295 = test system: SF-295
786-0 = test system: 786-0
MOLT-4 = test system: MOLT-4
SK-OV-3 = test system: SK-OV-3
EKVX = test system: EKVX
COLO 205 = test system: COLO 205
SK-MEL-5 = test system: SK-MEL-5
A498 = test system: A498
SK-MEL-28 = test system: SK-MEL-28
OVCAR-8 = test system: OVCAR-8
CCRF-CEM = test system: CCRF-CEM
KM12 = test system: KM12
HCC 2998 = test system: HCC 2998
MDA-MB-231 = test system: MDA-MB-231
LOX IMVI = test system: LOX IMVI
M14 = test system: M14
A549 = test system: A549
SR = test system: SR
SK-MEL-2 = test system: SK-MEL-2
IGROV-1 = test system: IGROV-1
HL-60 = test system: HL-60
BT-549 = test system: BT-549
Malme-3M = test system: Malme-3M
NCI-H522 = test system: NCI-H522
SF-268 = test system: SF-268
UACC-257 = test system: UACC-257
SF-539 = test system: SF-539
OVCAR-4 = test system: OVCAR-4
MCF7 = test system: MCF7
OVCAR-5 = test system: OVCAR-5
U-251 = test system: U-251
Hs-578T = test system: Hs-578T
NCI-H460 = test system: NCI-H460
CAKI-1 = test system: CAKI-1
SW-620 = test system: SW-620
HCT-15 = test system: HCT-15
SN12C = test system: SN12C
NCI-H23 = test system: NCI-H23
SNB-75 = test system: SNB-75
MDA-N = test system: MDA-N
ACHN = test system: ACHN
MDA-MB-435 = test system: MDA-MB-435
RXF 393 = test system: RXF 393
UACC-62 = test system: UACC-62
T47D = test system: T47D
HOP-62 = test system: HOP-62
RPMI-8226 = test system: RPMI-8226
HCT-116 = test system: HCT-116
UO-31 = test system: UO-31
TK-10 = test system: TK-10
OVCAR-3 = test system: OVCAR-3
PC-3 = test system: PC-3
SNB-19 = test system: SNB-19
HOP-92 = test system: HOP-92
DU-145 = test system: DU-145
K562 = test system: K562
NCI-H226 = test system: NCI-H226
HT-29 = test system: HT-29
NCI/ADR-RES = test system: NCI/ADR-RES

C=C1C(=O)O[C@H]2C[C@@H]1[C@@H](O)[C@H](O)[C@@H](C)CCCC(C)=CCC[C@@]2(C)O
GI50 (SF-295): 54.7 µM (inactive)
GI50 (786-0): 15.8 µM (inactive)
GI50 (MOLT-4): 4.84 µM (inactive)
GI50 (SK-OV-3): 62.5 µM (inactive)
GI50 (EKVX): 54 µM (inactive)
GI50 (COLO 205): 7.03 µM (inactive)
GI50 (SK-MEL-5): 14.3 µM (inactive)
GI50 (A498): 51.2 µM (inactive)
GI50 (SK-MEL-28): 25.6 µM (inactive)
GI50 (OVCAR-8): > 10 µM (inactive)
GI50 (CCRF-CEM): > 100 µM (inactive)
GI50 (KM12): 30.9 µM (inactive)
GI50 (HCC 2998): 25.3 µM (inactive)
GI50 (MDA-MB-231): 28 µM (inactive)
GI50 (LOX IMVI): 18.5 µM (inactive)
GI50 (M14): 13.6 µM (inactive)
GI50 (A549): 35.1 µM (inactive)
GI50 (SR): 39.7 µM (inactive)
GI50 (SK-MEL-2): 21.6 µM (inactive)
GI50 (IGROV-1): 24.3 µM (inactive)
GI50 (HL-60): 15.1 µM (inactive)
GI50 (BT-549): 10 µM (inactive)
GI50 (Malme-3M): 13 µM (inactive)
GI50 (NCI-H522): 4.24 µM (inactive)
GI50 (SF-268): 22.6 µM (inactive)
GI50 (UACC-257): 15.2 µM (inactive)
GI50 (SF-539): 15.2 µM (inactive)
GI50 (OVCAR-4): 21.9 µM (inactive)
GI50 (MCF7): 10.1 µM (inactive)
GI50 (OVCAR-5): 19.1 µM (inactive)
GI50 (U-251): 24.7 µM (inactive)
GI50 (Hs-578T): 18 µM (inactive)
GI50 (NCI-H460): 23 µM (inactive)
GI50 (CAKI-1): 5.06 µM (inactive)
GI50 (SW-620): > 10 µM (inactive)
GI50 (HCT-15): 22.9 µM
GI50 (SN12C): 17 µM (inactive)
GI50 (NCI-H23): 18.1 µM (inactive)
GI50 (SNB-75): 45.5 µM (inactive)
GI50 (MDA-N): 9.86 µM (inactive)
GI50 (ACHN): 14.6 µM (inactive)
GI50 (MDA-MB-435): 17.7 µM (inactive)
GI50 (RXF 393): 22.7 µM (inactive)
GI50 (UACC-62): 16.6 µM (inactive)
GI50 (T47D): 20.2 µM (inactive)
GI50 (HOP-62): 24.3 µM (inactive)
GI50 (RPMI-8226): 5.05 µM (inactive)
GI50 (HCT-116): 16.1 µM (inactive)
GI50 (UO-31): 14.8 µM (inactive)
GI50 (TK-10): 14.9 µM (inactive)
GI50 (OVCAR-3): 15.1 µM (inactive)
GI50 (PC-3): 19.9 µM (inactive)
GI50 (SNB-19): > 100 µM (inactive)
GI50 (HOP-92): 12.4 µM (inactive)
GI50 (DU-145): 42.7 µM (inactive)
GI50 (K562): 5.55 µM (inactive)

CC(C)(C)n1[nH]c(=O)n(C(C)(C)C)c1=O
GI50 (SF-295): > 100 µM (inactive)
GI50 (786-0): > 100 µM (inactive)
GI50 (MOLT-4): > 100 µM (inactive)
GI50 (SK-OV-3): > 100 µM (inactive)
GI50 (COLO 205): > 100 µM (inactive)
GI50 (SK-MEL-5): > 100 µM (inactive)
GI50 (A498): > 100 µM (inactive)
GI50 (SK-MEL-28): > 100 µM (inactive)
GI50 (CCRF-CEM): > 10 µM (inactive)
GI50 (KM12): > 100 µM (inactive)
GI50 (HCC 2998): > 100 µM (inactive)
GI50 (MDA-MB-231): > 100 µM (inactive)
GI50 (LOX IMVI): > 100 µM (inactive)
GI50 (M14): > 100 µM (inactive)
GI50 (A549): > 100 µM (inactive)
GI50 (SR): > 100 µM (inactive)
GI50 (SK-MEL-2): > 100 µM (inactive)
GI50 (HL-60): > 100 µM (inactive)
GI50 (BT-549): > 100 µM (inactive)
GI50 (SF-268): > 100 µM (inactive)
GI50 (UACC-257): > 100 µM (inactive)
GI50 (SF-539): > 100 µM (inactive)
GI50 (OVCAR-4): > 100 µM (inactive)
GI50 (MCF7): > 100 µM (inactive)
GI50 (OVCAR-5): > 100 µM (inactive)
GI50 (U-251): > 100 µM (inactive)
GI50 (Hs-578T): > 100 µM (inactive)
GI50 (NCI-H460): > 100 µM (inactive)
GI50 (CAKI-1): > 100 µM (inactive)
GI50 (SW-620): > 100 µM (inactive)
GI50 (HCT-15): > 100 µM
GI50 (SN12C): > 100 µM (inactive)
GI50 (NCI-H23): > 100 µM (inactive)
GI50 (SNB-75): > 100 µM (inactive)
GI50 (MDA-N): > 100 µM (inactive)
GI50 (ACHN): > 100 µM (inactive)
GI50 (MDA-MB-435): > 100 µM (inactive)
GI50 (RXF 393): > 100 µM (inactive)
GI50 (UACC-62): > 100 µM (inactive)
GI50 (T47D): > 100 µM (inactive)
GI50 (RPMI-8226): > 100 µM (inactive)
GI50 (HCT-116): > 100 µM (inactive)
GI50 (UO-31): > 100 µM (inactive)
GI50 (TK-10): > 100 µM (inactive)
GI50 (OVCAR-3): > 100 µM (inactive)
GI50 (PC-3): > 100 µM (inactive)
GI50 (SNB-19): > 100 µM (inactive)
GI50 (HOP-92): > 100 µM (inactive)
GI50 (DU-145): > 100 µM (inactive)
GI50 (K562): > 100 µM (inactive)

CC(C)=CCC[C@@H](C)C1=C(O)C(=O)C(C)=C(c2c(I)c(=O)n(C)c(=O)n2C)C1=O
GI50 (SF-295): > 100 µM (inactive)
GI50 (786-0): > 100 µM (inactive)
GI50 (NCI-H226): > 100 µM (inactive)
GI50 (MOLT-4): 36.8 µM (inactive)
GI50 (SK-OV-3): > 100 µM (inactive)
GI50 (EKVX): > 100 µM (inactive)
GI50 (COLO 205): > 100 µM (inactive)
GI50 (A498): > 100 µM (inactive)
GI50 (SK-MEL-28): > 100 µM (inactive)
GI50 (OVCAR-8): > 100 µM (inactive)
GI50 (CCRF-CEM): > 100 µM (inactive)
GI50 (KM12): > 100 µM (inactive)
GI50 (HCC 2998): > 100 µM (inactive)
GI50 (LOX IMVI): > 100 µM (inactive)
GI50 (M14): > 100 µM (inactive)
GI50 (A549): 61 µM (inactive)
GI50 (SK-MEL-2): > 100 µM (inactive)
GI50 (IGROV-1): 60.3 µM (inactive)
GI50 (HL-60): 74.6 µM (inactive)
GI50 (BT-549): > 100 µM (inactive)
GI50 (Malme-3M): > 100 µM (inactive)
GI50 (SF-268): > 100 µM (inactive)
GI50 (UACC-257): > 100 µM (inactive)
GI50 (SF-539): > 100 µM (inactive)
GI50 (OVCAR-4): > 100 µM (inactive)
GI50 (MCF7): > 100 µM (inactive)
GI50 (OVCAR-5): > 100 µM (inactive)
GI50 (HT-29): > 100 µM (inactive)
GI50 (Hs-578T): 76.6 µM (inactive)
GI50 (NCI-H460): > 100 µM (inactive)
GI50 (CAKI-1): > 100 µM (inactive)
GI50 (SW-620): > 100 µM (inactive)
GI50 (HCT-15): > 100 µM
GI50 (SN12C): > 100 µM (inactive)
GI50 (NCI-H23): > 100 µM (inactive)
GI50 (SNB-75): > 100 µM (inactive)
GI50 (NCI/ADR-RES): > 100 µM (inactive)
GI50 (MDA-N): > 100 µM (inactive)
GI50 (ACHN): > 100 µM (inactive)
GI50 (MDA-MB-435): > 100 µM (inactive)
GI50 (T47D): > 100 µM (inactive)
GI50 (HOP-62): > 100 µM (inactive)
GI50 (RPMI-8226): 61 µM (inactive)
GI50 (HCT-116): > 100 µM (inactive)
GI50 (UO-31): > 100 µM (inactive)
GI50 (TK-10): > 100 µM (inactive)
GI50 (OVCAR-3): > 100 µM (inactive)
GI50 (PC-3): 49.7 µM (inactive)
GI50 (SNB-19): > 100 µM (inactive)
GI50 (HOP-92): > 100 µM (inactive)
GI50 (DU-145): > 100 µM (inactive)
GI50 (K562): 61.9 µM (inactive)
